Reference: PubChem BioAssay AID248 (DTP/NCI, 2004)
Values joined by “and” are separate entries in the source; they are usually repeats but may differ in a detail not shown here. Equal values may be shown once. Toxic doses and inconclusive results are not listed. Rule as the data show it: active = T/C of 150% or more; inactive = T/C below 125%.

System: L1210 leukemia ip in BDF1 mice, survival T/C
Assay: NCI In Vivo Anticancer Drug Screen. Data for tumor model L1210 Leukemia (intraperitoneal) in B6D2F1 (BDF1) mice
Details: endpoint: mean survival time, higher = longer survival
Summary of the method: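 Read-out is survival time, reported as the treated-group measurement over the vehicle-control measurement.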

[1] = dose: 50.0 mg/kg/injection, schedule: Q01DX009 (ip), vehicle: Klucel (hydroxypropylcellulose) (HPC)
[2] = dose: 100.0 mg/kg/injection, schedule: Q01DX009 (ip), vehicle: Klucel (hydroxypropylcellulose) (HPC)
[3] = dose: 200.0 mg/kg/injection, schedule: Q01DX009 (ip), vehicle: Klucel (hydroxypropylcellulose) (HPC)
[4] = dose: 100.0 mg/kg/injection, schedule: Q01DX001 (ip), vehicle: carboxymethylcellulose (CMC)
[5] = dose: 200.0 mg/kg/injection, schedule: Q01DX001 (ip), vehicle: carboxymethylcellulose (CMC)
[6] = dose: 100.0 mg/kg/injection, schedule: Q04DX003 (ip), vehicle: Klucel (hydroxypropylcellulose) (HPC)
[7] = dose: 200.0 mg/kg/injection, schedule: Q04DX003 (ip), vehicle: Klucel (hydroxypropylcellulose) (HPC)
[8] = dose: 400.0 mg/kg/injection, schedule: Q01DX009 (ip), vehicle: Klucel (hydroxypropylcellulose) (HPC)
[9] = dose: 400.0 mg/kg/injection, schedule: Q04DX003 (ip), vehicle: Klucel (hydroxypropylcellulose) (HPC)
[10] = dose: 100.0 mg/kg/injection, schedule: Q01DX009 (ip), vehicle: saline with Tween-80
[11] = dose: 200.0 mg/kg/injection, schedule: Q01DX009 (ip), vehicle: saline with Tween-80

Measured: T/C

O=[N+]([O-])c1ccc(CBr)cc1
inactive: dose: 12.5 mg/kg/injection, schedule: Q01DX009 (ip), vehicle: other 95 % of control | dose: 25.0 mg/kg/injection, schedule: Q01DX009 (ip), vehicle: other 113 % of control | dose: 50.0 mg/kg/injection, schedule: Q01DX009 (ip), vehicle: other 104 % of control

CC(C)=CCCC(=O)NC(=O)NS(=O)(=O)c1ccc(Cl)cc1
inactive: [1] 109 % of control | [2] 100 % of control | [3] 96 % of control

ICC1COC(CI)CO1 (stereo not given)
inactive: [4] 97 % of control | [5] 111 % of control and 95 % of control | dose: 400.0 mg/kg/injection, schedule: Q01DX001 (ip), vehicle: carboxymethylcellulose (CMC) 95 % of control and 97 % of control

Cc1cccc(NC(=O)Nc2cccc(Cl)c2)c1C
inactive: [2] 91 % of control | [6] 90 % of control | [3] 100 % of control | [7] 90 % of control | [8] 93 % of control | [9] 89 % of control

COc1ccc(OC(=O)Nc2ccc(Cl)c(Cl)c2)cc1
inactive: [2] 102 % of control | [6] 95 % of control | [3] 106 % of control | [7] 95 % of control | [8] 95 % of control | [9] 102 % of control

O=C1CCCN1C(=O)C1CC1
inactive: dose: 100.0 mg/kg/injection, schedule: Q01DX001 (ip), vehicle: saline sonified 96 % of control | [10] 91 % of control | dose: 200.0 mg/kg/injection, schedule: Q01DX001 (ip), vehicle: saline sonified 109 % of control | [11] 87 % of control | dose: 400.0 mg/kg/injection, schedule: Q01DX001 (ip), vehicle: saline sonified 106 % of control | dose: 400.0 mg/kg/injection, schedule: Q01DX009 (ip), vehicle: saline with Tween-80 92 % of control

COc1ccc(-c2ccns2)cc1
inactive: [4] 93 % of control | [5] 92 % of control

Cc1ccc(-n2c(O)c(N=Nc3ccc(Br)cc3)c(=O)n(-c3ccc(Br)cc3)c2=S)cc1
inactive: dose: 50.0 mg/kg/injection, schedule: Q01DX001 (ip), vehicle: Klucel (hydroxypropylcellulose) (HPC) 100 % of control | dose: 100.0 mg/kg/injection, schedule: Q01DX001 (ip), vehicle: Klucel (hydroxypropylcellulose) (HPC) 109 % of control | dose: 200.0 mg/kg/injection, schedule: Q01DX001 (ip), vehicle: Klucel (hydroxypropylcellulose) (HPC) 106 % of control

C=C(Br)S(=O)(=O)CC
inactive: dose: 6.25 mg/kg/injection, schedule: Q04DX002 (ip), vehicle: saline 101 % of control | dose: 12.5 mg/kg/injection, schedule: Q04DX002 (ip), vehicle: saline 90 % of control | dose: 25.0 mg/kg/injection, schedule: Q04DX002 (ip), vehicle: Klucel (hydroxypropylcellulose) (HPC) 101 % of control | dose: 25.0 mg/kg/injection, schedule: Q04DX002 (ip), vehicle: saline 111 % of control

OC/C=C/c1cccs1
inactive: dose: 100.0 mg/kg/injection, schedule: Q04DX002 (ip), vehicle: saline 98 % of control | dose: 200.0 mg/kg/injection, schedule: Q04DX002 (ip), vehicle: saline 95 % of control

CNC(=S)N/N=C(/C)CCC/C(C)=N/NC(=S)NC
inactive: dose: 1.56 mg/kg/injection, schedule: Q03HX024 (ip), vehicle: Klucel (hydroxypropylcellulose) (HPC) 95 % of control | dose: 3.12 mg/kg/injection, schedule: Q01DX009 (ip), vehicle: Klucel (hydroxypropylcellulose) (HPC) 96 % of control | dose: 3.12 mg/kg/injection, schedule: Q03HX024 (ip), vehicle: Klucel (hydroxypropylcellulose) (HPC) 102 % of control | dose: 6.25 mg/kg/injection, schedule: Q01DX009 (ip), vehicle: Klucel (hydroxypropylcellulose) (HPC) 96 % of control | dose: 6.25 mg/kg/injection, schedule: Q03HX024 (ip), vehicle: Klucel (hydroxypropylcellulose) (HPC) 97 % of control | dose: 6.25 mg/kg/injection, schedule: Q04DX003 (ip), vehicle: Klucel (hydroxypropylcellulose) (HPC) 108 % of control | dose: 12.5 mg/kg/injection, schedule: Q01DX009 (ip), vehicle: Klucel (hydroxypropylcellulose) (HPC) 92 % of control | dose: 12.5 mg/kg/injection, schedule: Q03HX024 (ip), vehicle: Klucel (hydroxypropylcellulose) (HPC) 95 % of control | dose: 12.5 mg/kg/injection, schedule: Q04DX003 (ip), vehicle: Klucel (hydroxypropylcellulose) (HPC) 101 % of control | dose: 25.0 mg/kg/injection, schedule: Q01DX009 (ip), vehicle: Klucel (hydroxypropylcellulose) (HPC) 101 % of control | dose: 25.0 mg/kg/injection, schedule: Q03HX024 (ip), vehicle: Klucel (hydroxypropylcellulose) (HPC) 92 % of control | dose: 25.0 mg/kg/injection, schedule: Q04DX003 (ip), vehicle: Klucel (hydroxypropylcellulose) (HPC) 103 % of control | [1] 98 % of control | dose: 50.0 mg/kg/injection, schedule: Q04DX003 (ip), vehicle: Klucel (hydroxypropylcellulose) (HPC) 101 % of control | [6] 103 % of control | [7] 93 % of control | [9] 108 % of control

C=C(NC(=O)C(=C)NC(=O)c1csc(C2=NC3c4csc(n4)C4NC(=O)c5csc(n5)C(C(C)(O)C(C)O)NC(=O)C5CSC(=N5)/C(=C/C)NC(=O)C(C(C)O)NC(=O)c5csc(n5)C3(CC2)NC(=O)C(C)NC(=O)C(=C)NC(=O)C(=C)NC(=O)C(C(C)C)NC2C=Cc3c(C(C)O)cc(nc3C2O)C(=O)OC4C)n1)C(N)=O (stereo not given)
inactive: dose: 3.12 mg/kg/injection, schedule: Q01DX009 (ip), vehicle: saline 101 % of control | dose: 6.25 mg/kg/injection, schedule: Q01DX009 (ip), vehicle: saline 117 % of control

O=C(c1ccccc1)N(c1ccccc1)c1cccc(Cl)n1
inactive: dose: 50.0 mg/kg/injection, schedule: Q01DX009 (ip), vehicle: saline with Tween-80 93 % of control | [10] 93 % of control | [11] 90 % of control

C[C@]12CC[C@H](OC3OC(CO)C(O)C(O)C3O)C[C@H]1CC[C@@H]1[C@@H]2CC[C@]2(C)[C@@H](C3=CCOC3=O)CC[C@]12O (stereo not given in full)
inactive: dose: 0.5 mg/kg/injection, schedule: Q01DX001 (ip), vehicle: saline 103 % of control | dose: 0.5 mg/kg/injection, schedule: Q01DX010 (ip), vehicle: saline 98 % of control | dose: 1.0 mg/kg/injection, schedule: Q01DX001 (ip), vehicle: saline 105 % of control | dose: 1.0 mg/kg/injection, schedule: Q01DX010 (ip), vehicle: saline 107 % of control | dose: 2.0 mg/kg/injection, schedule: Q01DX001 (ip), vehicle: saline 105 % of control | dose: 2.0 mg/kg/injection, schedule: Q01DX010 (ip), vehicle: saline 107 % of control | dose: 4.0 mg/kg/injection, schedule: Q01DX001 (ip), vehicle: saline 103 % of control | dose: 8.0 mg/kg/injection, schedule: Q01DX001 (ip), vehicle: saline 103 % of control | dose: 16.0 mg/kg/injection, schedule: Q01DX001 (ip), vehicle: saline 108 % of control

Nc1cc2ccccc2c(Br)n1
inactive: dose: 100.0 mg/kg/injection, schedule: Q01DX001 (ip), vehicle: saline with Tween-80 110 % of control | dose: 100.0 mg/kg/injection, schedule: Q01DX009 (ip), vehicle: saline sonified 98 % of control | dose: 200.0 mg/kg/injection, schedule: Q01DX001 (ip), vehicle: saline with Tween-80 105 % of control | dose: 200.0 mg/kg/injection, schedule: Q01DX009 (ip), vehicle: saline sonified 93 % of control | dose: 400.0 mg/kg/injection, schedule: Q01DX001 (ip), vehicle: saline with Tween-80 100 % of control | dose: 400.0 mg/kg/injection, schedule: Q01DX009 (ip), vehicle: saline sonified 98 % of control
